In ChEMBL document CHEMBL1201862, “PubChem BioAssay data set” (2004):
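A five-concentration, 48-hour dose response in 96-well plates underlies each endpoint, interpolated linearly between surrounding concentrations. The concentration for 50% growth inhibition is given as GI50.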 Active and inactive are the calls of the source. No stated cut-off is given here; in the data, active = GI50 up to about 1.1 µM and inactive = higher.

How the values were obtained:
Assay in all cases: DTP human tumour cell line panel, 48 h
A549 = system: A549
EKVX = system: EKVX
HCC 2998 = system: HCC 2998
HCT-116 = system: HCT-116
HL-60 = system: HL-60
HOP-62 = system: HOP-62
Hs-578T = system: Hs-578T
IGROV-1 = system: IGROV-1
M14 = system: M14
MOLT-4 = system: MOLT-4
NCI-H226 = system: NCI-H226
NCI-H522 = system: NCI-H522
OVCAR-3 = system: OVCAR-3
PC-3 = system: PC-3
RPMI-8226 = system: RPMI-8226
SK-MEL-5 = system: SK-MEL-5
SN12C = system: SN12C
T47D = system: T47D
MDA-MB-231 = system: MDA-MB-231

Measured: GI50

Cc1cc(S(=O)(=O)Nc2nc(N)nc(N3CCOCC3)n2)c(SCC(=O)O)cc1Cl
inactive: A549 > 10 µM | EKVX > 10 µM | HCC 2998 > 10 µM | HCT-116 > 10 µM | HL-60 > 10 µM | HOP-62 > 10 µM | Hs-578T > 10 µM | IGROV-1 > 10 µM | M14 > 10 µM | MOLT-4 > 10 µM | NCI-H226 > 10 µM | NCI-H522 > 10 µM | OVCAR-3 > 10 µM | PC-3 > 10 µM | RPMI-8226 > 10 µM | SK-MEL-5 > 10 µM | SN12C > 10 µM | T47D > 10 µM

c1ccc(C(NCC2CCO2)(c2ccccc2)c2ccccc2)cc1 (centres undefined)
inactive: A549 15.2 µM | EKVX 16.2 µM | HCC 2998 16.9 µM | HCT-116 21.5 µM | HL-60 19.3 µM | IGROV-1 15.2 µM | M14 17.1 µM | MDA-MB-231 28.3 µM | MOLT-4 30.2 µM | NCI-H226 11.3 µM | NCI-H522 13.5 µM | OVCAR-3 18.5 µM | PC-3 15.8 µM | RPMI-8226 30.5 µM | SK-MEL-5 25.6 µM | SN12C 22.8 µM

O=C(CSCC(=O)N/N=C\c1cccc([N+](=O)[O-])c1)N/N=C\c1cccc([N+](=O)[O-])c1
inactive: A549 66.5 µM | EKVX 53.6 µM | HCC 2998 30.9 µM | HCT-116 27.7 µM | HL-60 > 100 µM | HOP-62 2.01 µM | Hs-578T 45.4 µM | IGROV-1 23.1 µM | M14 > 100 µM | MDA-MB-231 18.9 µM | MOLT-4 > 100 µM | NCI-H226 > 100 µM | NCI-H522 43.8 µM | OVCAR-3 22.9 µM | RPMI-8226 > 100 µM | SK-MEL-5 > 100 µM | SN12C 68.9 µM | T47D 34.1 µM

COc1cc(C2NCCC(c3ccccc3)(c3ccccc3)N2)cc(OC)c1OC (centres undefined)
inactive: A549 32.4 µM | EKVX > 100 µM | HCC 2998 20.7 µM | HCT-116 4.43 µM | HL-60 5.83 µM | HOP-62 34 µM | Hs-578T 26.1 µM | IGROV-1 27.2 µM | M14 11.7 µM | MDA-MB-231 68.9 µM | MOLT-4 > 10 µM | NCI-H226 12.7 µM | RPMI-8226 7.36 µM | SK-MEL-5 17.3 µM | SN12C 59.3 µM | T47D 58.2 µM

O=C(NC(=S)Nc1ccc2c(c1)Sc1ccccc1O2)c1ccc([N+](=O)[O-])cc1
inactive: A549 > 100 µM | EKVX > 100 µM | HCT-116 > 100 µM | HL-60 > 100 µM | HOP-62 > 100 µM | Hs-578T > 100 µM | IGROV-1 > 100 µM | M14 > 100 µM | MDA-MB-231 > 100 µM | NCI-H226 > 100 µM | NCI-H522 > 100 µM | OVCAR-3 > 100 µM | PC-3 > 100 µM | RPMI-8226 > 100 µM | SK-MEL-5 > 100 µM | SN12C > 100 µM | T47D > 100 µM

CC(=O)OCc1cc(CCC(=O)NCCNc2c3ccccc3nc3ccccc23)cc(COC(C)=O)c1O[Si](C)(C)C(C)(C)C
inactive: A549 7.13 µM | EKVX 13.4 µM | HCT-116 4.61 µM | HL-60 2.87 µM | HOP-62 13.6 µM | Hs-578T 3.3 µM | IGROV-1 10.4 µM | M14 5.26 µM | MDA-MB-231 3.37 µM | MOLT-4 2.4 µM | NCI-H226 2.19 µM | NCI-H522 5.5 µM | OVCAR-3 2 µM | PC-3 10.5 µM | RPMI-8226 2.57 µM | SN12C 1.83 µM | T47D 1.97 µM

NC(=O)c1cc(-c2ccc(-n3ccnc3)cc2)nnc1O
inactive: A549 > 100 µM | EKVX > 100 µM | HCC 2998 > 100 µM | HCT-116 > 100 µM | HL-60 > 100 µM | HOP-62 > 100 µM | Hs-578T > 100 µM | IGROV-1 > 100 µM | M14 > 100 µM | MOLT-4 > 100 µM | NCI-H522 > 100 µM | PC-3 > 100 µM | RPMI-8226 > 100 µM | SK-MEL-5 > 100 µM | SN12C > 100 µM

CCOC(=O)/C1=C(\C)N(c2ccc(C)cc2)C(=O)c2ccccc2C(=O)c2c(OC(C)=O)ccc(OC(C)=O)c21
inactive: A549 26.8 µM | HCT-116 15.3 µM | HL-60 20 µM | HOP-62 18.5 µM | Hs-578T 16.6 µM | IGROV-1 4.01 µM | M14 18.4 µM | MDA-MB-231 12.9 µM | MOLT-4 6.27 µM | NCI-H226 14.6 µM | NCI-H522 20.7 µM | OVCAR-3 16.5 µM | PC-3 26.2 µM | RPMI-8226 13.8 µM | SK-MEL-5 30 µM | SN12C 20.4 µM | T47D 13.7 µM
